Test results taken from patent US8685981B2, “Cyclic compound having hetero atom” (Daiichi Sankyo Company, Limited, priority 2009, dated 2014).

Tests used:
[1] = system: ST2 cells, murine bone marrow-derived stromal cells; assay: Osteoblast differentiation test (alkaline phosphatase activity); assay type: cell-based; details: Mus musculus, ST-2, 96 h, at 0.03 μg/mL, four days of culturing, control group (0.1% DMSO) set at 100%, read-out: increase (%) in alkaline phosphatase activity
Procedure: ST2 cells, murine bone marrow-derived stromal cells, (obtained from RIKEN) were used.
In this test, α-MEM media (obtained from GIBCO BRL Cat. No. 10370-021) containing 10% (v/v) of inactivated calf serum (obtained from Hyclone Laboratories, Inc.) and 1% (v/v) of Penicillin-Streptomycin Liquid (obtained from GIBCO BRL Cat. No. 15140-122) (hereinbelow, abbreviated as 10%-FBS-αMEM) were used. In this test, all culturing was performed in a CO2 incubator (37° C., 95% humidity, 5% CO2).
The aforementioned cells were detached with 2 mL of a 0.25% trypsin solution (obtained from GIBCO BRL Cat. No. 15050-065) and dispersed in 10 mL of 10%-FBS-αMEM. Subsequently, the cells were collected by centrifugation (25° C., 800 rpm, five minutes). Then, a cell suspension containing 40000 of the cells/mL of 10%-FBS-αMEM was prepared. The cell suspension was then dispensed into 96-well plates (the product of Falcon), 100 μL per well, at a density of 4000 cells/well, followed by culturing for 24 hours. To the wells except for the below-described well containing a control group, the compound was dispensed at final concentrations of 0.01, 0.03, 0.1, and 0.3 μg/ml. To the well of a control group, DMSO was dispensed at a final concentration of 0.1% (v/v). After four days of culturing, the activity of alkaline phosphatase (ALP) was measured in each group.
The measurement of ALP activity was performed as follows. That is, the medium in each well of the culture plates was completely removed. Each well was then washed by dispensing 100 μL of Dulbecco's phosphate buffer (obtained from GIBCO BRL Cat. No. 14190-144) and then removing it. A cell lysate solution containing 10 mM MgCl2 and 2% (v/v) TritonX-100 (Sigma) was prepared and dispensed at 50 μL/well, followed by stirring at room temperature for five minutes. An ALP substrate solution containing 50 mM diethanolamine (Wako pure chemical industries, Ltd., Cat. No. 099-03112) and 20 mM p-nitrophenyl phosphate (Wako pure chemical industries, Ltd., Cat. No. 147-02343) was prepared and dispensed at 50 μL/well, and the plates were left to stand at room temperature for 10 minutes. Subsequently, absorbance was measured by a microplate reader (Bio-Rad Laboratories, Inc.). Setting the measurement value of the control group of each plate at 100%, the increase (%) in alkaline phosphatase activity in the test compound-addition group was calculated, which was assessed as the degree of osteoblast differentiation.

female F344 rats = assay: Effect on bone density (oophorectomy or sham surgery, femur DXA); assay type: in vivo; details: 3 mg/kg, orally once a day, six days a week, six to eight weeks, female F344 rats after oophorectomy or sham surgery
Procedure: Eight to 12 week old female F344 rats were purchased from Charles River Laboratories and used in the following experiment. Rats were anesthetized with an intraperitoneal administration of 40 mg/kg of Somnopentyl (Kyoritsu Seiyaku Corporation), and then oophorectomy or sham surgery was performed. From the day after surgery, a suspension of the test compound in a 0.5% methyl cellulose solution (Wako pure chemical industries, Ltd. Cat. No. 133-14255) was orally administered once a day, six days a week. Six to eight weeks after administration, the rats were euthanized by removal of whole blood from the lower abdominal aorta under Somnopentyl anesthesia, and the left and right femur was excised.
After removal of soft tissues, the bone density of the femur thus excised was measured by a DXA apparatus, DCS-600R (Aloka Co., Ltd.). The bone density was assessed in the whole femur as well as in three equal sections of the whole femur, namely the proximal end, the shaft, and the distal end.

Compound	activity at 0.03 µg/mL [1] [%]	bone density of the femur (female F344 rats)
NC(=O)c1ccc2cncc(N3CCN(c4ccccc4)CC3)c2c1 [Example 15, 4-(4-Phenylpiperazin-1-yl)isoquinoline-6-carboxamide]	≥ 200	significantly increased
NC(=O)c1ccc2cncc(N3CCC(OCCO[C@@H]4CCOC4)CC3)c2n1 [Example 3, 8-(4-{2-[(3R)-Tetrahydrofuran-3-yloxy]ethoxy}piperidin-1-yl)-1,6-naphthyridine-2-carboxamide]	≥ 200	significantly increased
NC(=O)c1ccc2cncc(N3CCC(OCCO[C@H]4CCOC4)CC3)c2n1 [Example 4, 8-(4-{2-[(3S)-Tetrahydrofuran-3-yloxy]ethoxy}piperidin-1-yl)-1,6-naphthyridine-2-carboxamide]	≥ 200	significantly increased
Cl.NC(=O)c1ccc2cncc(N3CCC(OCCOC4CCOCC4)CC3)c2n1 [Example 7, 8-{4-[2-(Tetrahydro-2H-pyran-4-yloxy)ethoxy]piperidin-1-yl}-1,6-naphthyridine-2-carboxamide hydrochloride]	–	significantly increased
NC(=O)c1ccc2cncc(N3CCCCC3)c2n1 [Example 12, 8-Piperidin-1-yl-1,6-naphthyridine-2-carboxamide]	≥ 200	significantly increased
NC(=O)c1ccc2cncc(N3CCC(OCCOC4CCOC4)CC3)c2n1 (centres unmarked) [Example 117]	≥ 200	–
CC1CCN(c2cncc3ccc(C(N)=O)cc23)C1 (centres unmarked) [Example 72]	≥ 200	–
NC(=O)c1ccc2cncc(N3CC=C(c4ccccc4)CC3)c2c1 [Example 24, 4-(4-Phenyl-3,6-dihydropyridine-1(2H)-yl)isoquinoline-6-carboxamide]	≥ 200	–
NC(=O)c1ccc2cncc(N3CCC(O)(c4ccc(Cl)cc4)CC3)c2c1 [Example 54]	≥ 200	–
NC(=O)c1ccc2cncc(N3CCC(COC(F)F)CC3)c2c1 [Example 95]	≥ 200	–
NC(=O)c1ccc2cncc(N3CCC(OCCOC4CC4)CC3)c2c1 [Example 87]	≥ 200	–
COC1CCN(c2cncc3ccc(C(N)=O)cc23)CC1 [Example 76]	≥ 200	–
NC(=O)c1ccc2cncc(N3CCCC3)c2c1 [Example 36]	≥ 200	–
CN(C)C(=O)CCC1CCN(c2cncc3ccc(C(N)=O)cc23)CC1 [Example 82]	≥ 200	–
NC(=O)c1ccc2cncc(N3CCC(OCCS(=O)(=O)N4CCOCC4)CC3)c2n1 [Example 92]	≥ 200	–
NC(=O)c1ccc2cncc(N3CCC(OCCOCCO)CC3)c2c1 [Example 85]	≥ 200	–
COC[C@H]1CCCN(c2cncc3ccc(C(N)=O)cc23)C1 [Example 39]	≥ 200	–

Compound	activity at 0.03 µg/mL [1] [%]	bone density of the femur (female F344 rats)
COCC1CCN(c2cncc3ccc(C(N)=O)nc23)CC1 [Example 112]	≥ 200	–
NC(=O)c1ccc2cncc(N3CCOCC3)c2c1 [Example 35]	≥ 200	–
CC(=O)C1(c2ccccc2)CCN(c2cncc3ccc(C(N)=O)cc23)CC1 [Example 46]	≥ 200	–
CN(C)C(=O)COC1CCN(c2cncc3ccc(C(N)=O)nc23)CC1 [Example 8, 8-{4-[2-(Dimethylamino)-2-oxoethoxy]piperidin-1-yl}-1,6-naphthyridine-2-carboxamide]	≥ 200	–
NC(=O)c1ccc2cncc(N3CCC(CCOC4CCOCC4)CC3)c2c1 [Example 71]	≥ 200	–
NC(=O)c1ccc2cncc(N3CCC(C4CCCCC4)CC3)c2c1 [Example 53]	≥ 200	–
COCC1CN(c2cncc3ccc(C(N)=O)cc23)CCC1OC (centres unmarked) [Example 109]	≥ 200	–
NC(=O)c1ccc2cncc(N3CCN(c4ccccc4)CC3)c2n1 [Example 28]	≥ 200	–
NC(=O)c1ccc2cncc(N3CCC(OCCOC4CCOCC4)CC3)c2c1 [Example 81]	≥ 200	–
CCN(C)C(=O)N1CCN(c2cncc3ccc(C(N)=O)nc23)CC1 [Example 115]	≥ 200	–
CN(C)C(=O)N1CCN(c2cncc3ccc(C(N)=O)nc23)CC1 [Example 10, 8-[4-(Dimethylcarbamoyl)piperazin-1-yl]-1,6-naphthyridine-2-carboxamide]	≥ 200	–
NC(=O)c1ccc2cncc(N3CCC(OCCOC4CCCCO4)CC3)c2c1 (centres unmarked) [Example 19, 4-{4-[2-(Tetrahydro-2H-pyran-2-yloxy)ethoxy]piperidin-1-yl}isoquinoline-6-carboxamide]	≥ 200	–
NC(=O)c1ccc2cncc(N3CCC(COCCOC4CCOCC4)CC3)c2n1 [Example 110]	≥ 200	–
NC(=O)c1ccc2cncc(N3CC[C@@H]4CCCC[C@H]4C3)c2c1 [Example 67]	≥ 200	–
Cc1ccc(N2CCN(c3cncc4ccc(C(N)=O)cc34)CC2)cc1 [Example 61]	≥ 200	–
COCC1CN(c2cncc3ccc(C(N)=O)nc23)CCC1OC (centres unmarked) [Example 108]	≥ 200	–
NC(=O)c1ccc2cncc(N3CCN(c4ccc(Cl)cc4)CC3)c2c1 [Example 49]	≥ 200	–
